In patent US6489535B1, “Non-mammalian transgenic animal having an adult onset neurodegenerative phenotype” (priority 1999, dated 2002):
Like-named read-outs stand apart in the source and are kept apart here.

Assays:
[1] = tested on: AON mutant fly strain; test: whole plant or invertebrate; assay type: in vivo, Drosophila melanogaster; settings: for Phenotype AON + E: larva fed .5 μg/ml estrogen, >90% of 100 flies; for Phenotype AON + E: key: None = normal adult fly; WC = loss of wing control; WP = wings paralyzed; C = loss of coordination and locomotion capabilities; L = flies stop uptaking liquid; D = death
Experimental: (§1) Each compound was prepared over a range of dilutions and each was tested for the activity of alleviating the adult onset neurodegeneration condition. The compound dilutions were uptaken by either the larva or adult flies. The compound dilutions were mixed into the nutrient media and this served as the food/water source for either larva or flies. The adult onset neurodegeneration symptoms and their timelines were monitored for each compound dilution and compared to the no treatment control. Compounds examined here included: beta-estradiol, zinc chloride, sodium chloride, water, chocolate, and phosphate buffered saline.
In addition, compounds were also tested in the AON mutant fly strain that were known not to influence human AON conditions. Finally, a complex mixture with unknown influence on human AON conditions was tested in the AON mutant fly strain.

[2] = tested on: wild-type adult flies; test: Wild-type flies fed estrogen, phenotype by adult age; assay type: in vivo, Drosophila melanogaster; settings: larva fed .5 μg/ml estrogen; note: key: None = normal adult fly; WC = loss of wing control; WP = wings paralyzed; C = loss of coordination and locomotion capabilities; L = flies stop uptaking liquid; D = death
Experimental: as §1

[3] = Drosophila melanogaster, po, read-out: S increased (S = AON symptom free adult time span)

OC(CCN1CCCCC1)(c1ccccc1)C1CCCCC1 (centres unmarked) [Trihexyphenidyl]
change in vivo at 100 µg/mL [1, 3]: ~25%
change in vivo at 1000 µg/mL [1, 3]: 33%

[Cl-].[Cl-].[Zn+2] [Zinc, zinc chloride]
effect on the AON condition ([1]; higher concentrations, 50-100 μgrams/ml of nutrient media, oral): exacerbated the AON condition
effect on the mutant AON fly strain ([1]; low concentrations, 10-20 μgrams/ml of nutrient media, oral): no effect was observed

NC(=O)c1cccnc1 [Nicotinamide]
change in vivo at 5000 µg/mL [1, 3]: 100%
L.D. ([1]; dose 5 mg/ml): L.D. 90, S

CCCN1C[C@H](CSC)C[C@@H]2c3cccc4[nH]cc(c34)C[C@H]21 [pergolide]
effect in the AON fly drug screening ([1]; dose not stated): did not show any effect

CCN(CC)C(=O)N[C@H]1C=C2c3cccc4[nH]cc(c34)C[C@H]2N(C)C1 [Lisuride]
change in vivo at 2 µg/mL ([1]; Drosophila melanogaster, po, dose .002 mg/ml, read-out: S increased (S = AON symptom free adult time span)): 100%
L.D. ([1]; dose 2 mg/ml): L.D. 100
L.D. ([1]; dose .002 mg/ml): L.D. 60, S
L.D. ([1]; dose .02 mg/ml, (no AON flies)): L.D. 99 (no
L.D. ([1]; dose .2 mg/ml): L.D. 100

C[C@]12N[C@H](Cc3ccccc31)c1ccccc12 [Dizocilipine]
S increased (S = AON symptom free adult time span) ([1]; dose .00006 mg/ml): 17%
AON symptoms delayed ([1]; dose .0006 mg/ml): delayed 2 days
AON growth ([1]; dose .06 mg/ml): delayed
result (effect on AON phenotype) ([1]; dose .06 mg/ml): No
L.D. ([1]; in vivo): L.D. 100

CN1[C@@H]2CC[C@H]1C[C@@H](OC(c1ccccc1)c1ccccc1)C2 [Benztropine]
change in vivo at 0.023 µg/mL [1, 3]: 400%
change in vivo at 0.23 µg/mL [1, 3]: 300%
change in vivo at 23 µg/mL [1, 3]: 500%
D increased (D = life span) ([1]; dose .000023 mg/ml): 33%
D increased (D = life span) ([1]; dose .00023 mg/ml): 17%
L.D., AON class ([1]; dose .023 mg/ml, AON class): L.D. 95,
L.D. ([1]; dose .23 mg/ml): L.D. 100

Nc1c2c(nc3ccccc13)CCCC2 [Tacrine]
change in vivo at 0.5 µg/mL [1, 3]: 100%

Nc1nc2ccc(OC(F)(F)F)cc2s1 [Riluzole]
change in vivo at 10 µg/mL [1, 3]: 100%
D increased (D = life span) ([1]; dose .01 mg/ml): increased 17%

C#CCN(C)[C@H](C)Cc1ccccc1 [Selegiline]
change in vivo at 0.2 µg/mL ([1]; Drosophila melanogaster, po, dose .0002 mg/ml, read-out: S increased (S = AON symptom free adult time span)): 200%
change in vivo at 20 µg/mL ([1]; Drosophila melanogaster, po, dose .02 mg/ml, read-out: S increased (S = AON symptom free adult time span)): 100%
L.D. ([1]; dose 2 mg/ml): L.D. 100
L.D., AON class only ([1]; dose .2 mg/ml, AON class only): only, L.D. 95,
result (effect on AON phenotype) ([1]; dose .2 mg/ml, escapers): No Effect

Cc1c(C)c2c(c(C)c1O)CC[C@@](C)(CCC[C@H](C)CCC[C@H](C)CCCC(C)C)O2 [Alpha Tocopherol]
L.D. ([1]; dose 1 mg/ml): L.D. 30,
D increased (D = life span) ([1]; dose 1 mg/ml, escapers): increased 33%
S increased (S = AON symptom free adult time span) ([1]; dose 1 mg/ml, escapers): 200%, D

[Cl-].[Na+] [sodium chloride]
effect on the AON phenotype in the mutant fly strain ([1]; oral, dose not stated): no effect

N[C@@H](Cc1ccc(O)c(O)c1)C(=O)O [Levodopa]
change in vivo at 0.15 µg/mL [1, 3]: 100%

beta-estradiol [Estrogen]
effect on the AON condition in the mutant fly strain ([1]; administered orally): alleviates the AON condition
Phenotype AON + E ([1]; age of adult 0-1 hours): None
Phenotype AON + E ([1]; age of adult 1-3 hours): None
D increased (D = life span) ([1]; dose 5 mg/ml): increased 68%
S increased (S = AON symptom free adult time span) ([1]; dose 5 mg/ml): 100%, D
S increased (S = AON symptom free adult time span) ([1]; dose .5 mg/ml): 200%
Phenotype Wt + E ([2]; age of adult 0-1 hours): None
Phenotype Wt + E ([2]; age of adult 1-3 hours): None
Phenotype Wt + E ([2]; age of adult 3-24 hours): None
Phenotype Wt + E ([2]; age of adult 24-36 hours): None
Phenotype Wt + E ([2]; age of adult 36-72 hours): None
Phenotype Wt + E ([2]; age of adult 72-144 hours): None
Phenotype Wt + E ([2]; age of adult 144+ hours): None

CCCn1cnc2c1c(=O)n(CCCCC(C)=O)c(=O)n2C [Propentofylline]
change in vivo at 5000 µg/mL [1, 3]: 200%
L.D. ([1]; dose 5 mg/ml): L.D. 80,
D increased (D = life span) ([1]; dose 5 mg/ml, escapers): 17%

CN1C(=O)CN=C(c2ccccc2)c2cc(Cl)ccc21 [Diazepam]
L.D. ([1]; AON mutant fly strain, Drosophila melanogaster, in vivo): L.D. 100
result (effect on AON phenotype) ([1]; in vivo): No Effect

COc1ccc2[nH]cc(CCNC(C)=O)c2c1 [Melatonin]
L.D. ([1]; dose 5 mg/ml): L.D. 100
result (effect on AON phenotype) ([1]; dose .0005 mg/ml): No Effect
result (effect on AON phenotype) ([1]; dose .005 mg/ml): No Effect
result (effect on AON phenotype) ([1]; dose .05 mg/ml): No Effect
result (effect on AON phenotype) ([1]; dose .5 mg/ml): No Effect

CC(C)C[C@H]1C(=O)N2CCC[C@H]2[C@]2(O)O[C@](NC(=O)[C@@H]3C=C4c5cccc6[nH]c(Br)c(c56)C[C@H]4N(C)C3)(C(C)C)C(=O)N12 [Bromocriptine]
change in vivo at 10 µg/mL ([1]; Drosophila melanogaster, po, dose .01 mg/ml, read-out: S increased (S = AON symptom free adult time span)): 33%
L.D. ([1]; dose .1 mg/ml): L.D. 100
